{"source": "patent US8628961B2", "about": "“Small molecule antagonists of phosphatidylinositol-3,4,5-triphosphate (PIP3) and uses thereof” (Tufts University, priority 2010, dated 2014)", "key": {"Akt PH domain [1]": {"target": "T1, Akt PH domain (Homo sapiens (Human), UniProt P31749)", "experiment": "PH domain translocation assay (GFP fusion, plasma membrane)", "assay_type": "cell-based", "conditions": "PDGF stimulation", "description": "Cells were transfected with the corresponding GFP-fusion vectors, serum starved overnight, and incubated with 100 μM PITs or PIT-1 is for 2 hr, followed by stimulation with 100 ng/ml PDGF or 250 ng/ml PMA for 5 min. The translocation was analyzed using fluorescent microscope and was quantitated by counting the number of cells with translocated PH domains in five random fields.\nTo begin characterizing cellular activity of PITs, a PH domain translocation assay was performed, measuring PIP3-induced association of GFP-fused PH domains with the plasma membrane. […] Varnai P et al. (1999) J Biol Chem 274:10983-9. Several PH-domain-containing proteins, which are known to bind PIP3 specifically and efficiently, were examined. […] Oikawa T et al. (2004) Nat Cell Biol 6:420-6."}, "[2]": {"target": "R86A mutant of the PH domain (Homo sapiens (Human), UniProt P31749, R86A)", "sequence (P31749 1-123 R86A)": "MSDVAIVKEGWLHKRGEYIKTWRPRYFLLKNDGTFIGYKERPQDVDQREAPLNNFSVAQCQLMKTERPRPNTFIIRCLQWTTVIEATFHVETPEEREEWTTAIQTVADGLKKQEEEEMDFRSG", "experiment": "NMR HSQC binding analysis, mutant PH domain"}, "U87MG cells": {"tested_on": "U87MG cells", "experiment": "cells", "assay_type": "cell-based", "conditions": "for IC50: U87MG cells, 48 hr, ATP assay, read-out: Cell Viability IC50", "description": "(§1) Based on the critical role of PIP3-dependent […] signaling in the regulation of cell survival, the effect of PIT-1 on the cancer cell viability was tested. Cancer cells were seeded into 96-well plates (white plates for ATP assay; black plates for fluorescent assay; clear plates for MTS assay) at the density of 5-10×10^3 cells per well in 100 μl of the appropriate media. Compounds were added at a series of concentrations and incubated for different times. For the ATP assay, a luminescence-based commercial kit (CellTiter-Glo, Promega, Madison, Wis.) was used. Thirty microliters of cell lysis/ATP detection reagent was added to each well, mixed for 10 min at room temperature, and the luminescence was measured using a Wallac Victor 3 plate reader (Perkin-Elmer, Wellesley, Mass.). For the MTS assay, a CellTiter 96 AQueous Non-Radioactive Cell Proliferation Assay Kit (Promega, Madison, Wis., USA) was used. Twenty microliters of the combined MTS/PMS solution was added into each well, incubated for 4 hr at 37° C., and the absorbance at 490 nm was measured using a Wallac Victor 3 plate reader. For the Sytox cell death assay, measuring loss of plasma membrane integrity, cells were incubated with 1 μM Sytox Green reagent (Molecular Probes, Eugene, Oreg.) for 30 min at 37° C. and the fluorescence intensity was measured using Wallac Victor 3 plate reader with excitation at 485 nm and emission at 545 nm. Next, 5 μl of 20% (v/v) Triton X-100 solution was added to each well and incubated for 1 hr at 37° C., and the signal was measured again. The ratio of values (percentage of dead cells in each well) before and after Triton X-100 treatment was calculated and normalized to the relevant controls not subjected to the cytotoxic stimuli. IC50 values were determined using Origin6 software (MicroCal, LLC, Northampton, Mass.).\nTo measure induction of cell death by PIT-1 derivatives, U87MG cells were incubated with PITs (1.56-300 μM) for 48 hr. Cell viability was determined using ATP assay."}, "[3]": {"tested_on": "multiple cancer cell lines", "experiment": "Cancer cell viability, MTS or ATP assays", "assay_type": "cell-based", "conditions": "dose- and time-dependent", "description": "as §1"}, "Akt PH domain [4]": {"target": "T1, Akt PH domain", "experiment": "Fluorescence polarization (FP) PIP3/Akt PH domain binding assay", "conditions": "for IC50: 15 nM TMR-conjugated PIP3, PITs 6.25-200 μM, 30 min; for activity of PIT-1 analogs in vitro: negative controls", "excerpt": "(§2) In order to identify compounds that disrupt the interaction between PIP3 and PH domains, a high-throughput fluorescence polarization (FP)-binding assay was developed using recombinant 1-123 amino acid N-terminal fragment of human Akt1 (also referred to herein simply as Akt), encompassing the PH domain (PH123 protein), and fluorescent […] PIP3 molecule. The amino acid sequence of human Akt1 is publicly available as, for example, GenBank Accession No. NP_001014432.1 (SEQ ID NO:1), and the corresponding DNA sequence is publicly available as, for example, GenBank Accession No. NM_001014432. Briefly, 5 μM recombinant GST fusion proteins containing 1-123 a.a. N-terminal fragment of human Akt1 (PH 123) or 100 nM 441-551 a.a. region of human PDK1 were incubated with 15 nM TMR-labeled PIP3, PIP2, or PIP5 in buffer containing 50 mM Tris-HCl (pH 7.5), 150 mM NaCl, and 5 mM b-ME for 15 min at room temperature in the dark. FP values were determined using Wallac Victor 3 plate reader. For the primary screen, 50,000 diverse small molecules from Harvard Institute of Chemistry and Cell Biology were screened (iccb.med.harvard.edu). Incubations were carried out for 1 hr. For secondary assays, PIT compounds were added at various concentrations (6.25, 12.5, 25, 50, 100, 150 and 200 μM), followed by a 30 min incubation. The inhibition rates were calculated as inhibition rate=[1−(compound-treated group/control group)]×100%, and IC50 value was determined using Origin6 software (MicroCal, LLC, Northampton, Mass.)."}, "PLC-δ PH domain": {"target": "PLC-δ PH domain (Homo sapiens (Human), UniProt P51178)", "sequence (P51178 21-130)": "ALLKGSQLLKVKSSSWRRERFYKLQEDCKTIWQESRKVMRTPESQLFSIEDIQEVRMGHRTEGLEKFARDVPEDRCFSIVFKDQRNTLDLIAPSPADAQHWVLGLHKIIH", "experiment": "FP PIP2/PLC-δ PH domain binding assay", "conditions": "FIG. 5", "description": "FIG. 5 is a graph depicting specificity and concentration-dependent competitive inhibition of PIP3-PH domain interaction by PIT-1 and PIT-2. 15 nM TMR-conjugated PIP2 were incubated with 100 nM PLC-δ PH domain in the presence or absence of the indicated concentrations of PITs (0-200 μM) for 30 min, followed by FP measurement.\nas §2, with “For the primary screen, 50,000 diverse small molecules from Harvard Institute of Chemistry and Cell Biology were screened (iccb.med.harvard.edu). Incubations were carried out for 1 hr. For secondary assays, PIT compounds were added at various concentrations (6.25, 12.5, 25, 50, 100, 150 and 200 μM), followed by a 30 min incubation. The inhibition rates were calculated as inhibition rate=[1−(compound-treated group/control group)]×100%, and IC50 value was determined using Origin6 software (MicroCal, LLC, Northampton, Mass.).” left out"}, "Bcl-xL": {"target": "Bcl-xL (Homo sapiens (Human), UniProt Q07817)", "sequence (Q07817 whole entry, species assumed)": "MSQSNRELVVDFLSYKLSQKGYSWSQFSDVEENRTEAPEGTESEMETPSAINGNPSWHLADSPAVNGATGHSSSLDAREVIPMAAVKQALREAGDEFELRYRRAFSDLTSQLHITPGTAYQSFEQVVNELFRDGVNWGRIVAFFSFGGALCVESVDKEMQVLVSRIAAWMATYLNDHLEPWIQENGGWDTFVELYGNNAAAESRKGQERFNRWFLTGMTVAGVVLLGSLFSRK", "experiment": "NMR HSQC specificity control", "assay_type": "binding"}, "[5]": {"tested_on": "SUM159 cells transfected with VAV2 or WAVE2", "experiment": "Lamellipodia formation and membrane translocation in VAV/WAVE-transfected cells", "assay_type": "cell-based, human", "conditions": "100 μM, 2 hr", "excerpt": "Of the PIP3-binding actin-regulating factors, VAV and WAVE family proteins have been identified as important PIP3-interacting proteins regulating actin polymerization, lamellipodia formation, and cell motility in response to growth factor stimulation. Hornstein I et al. (2004) Cell Signal 16:1-11; Oikawa T et al. (2004) Nat Cell Biol 6:420-6. Therefore, the effect of PIT-1 on the cellular localization of GFP fusions of VAV and WAVE proteins was investigated. SUM159 cells transfected with VAV2 or WAVE2 GFP vectors were treated with PIT-1, PIT-2, PIT-1i-1, or PIT-1i-2 (100 μM) for 2 hr. Alternatively, cells were serum starved overnight, treated with these same compounds and then stimulated with PDGF 100 ng/ml for 15 min. Subsequently, actin fibers were stained with TRITC-phalloidin and analyzed using fluorescent microscopy. The numbers of cell ruffles/lamellipodia were counted in five random fields."}}, "note": "Where two headings read alike, the source gives them in different places."}
{"smiles": "O=C(NC(=S)Nc1cc([N+](=O)[O-])cc(Cl)c1O)c1ccccc1", "note": "[PIT-1]", "values": [{"measurement": "plasma membrane translocation of Akt PH domain", "setting": "Akt PH domain [1]", "result": "significantly inhibited the translocation"}, {"measurement": "effect on R86A mutant PH domain (HSQC)", "setting": "[2]", "result": "no effect"}, {"measurement": "killing of U87MG cells compared with LY294002", "setting": "U87MG cells", "result": "more pronounced than that by the PI3K inhibitor LY294002"}, {"measurement": "IC50", "setting": "U87MG cells; Homo sapiens, U-87 MG", "result": "39.9 ± 3.2", "unit": "µM"}, {"measurement": "viability of multiple cancer cell lines", "setting": "[3]", "result": "reduced viability of multiple cancer cell lines"}, {"measurement": "IC50", "setting": "Akt PH domain [4]", "result": "31 ± 2.5", "unit": "µM"}, {"measurement": "inhibition of interaction between PIP2 and PH domain of PLC-δ", "setting": "PLC-δ PH domain", "result": "failed to inhibit"}, {"measurement": "changes in HSQC spectra of Bcl-xL", "setting": "Bcl-xL", "result": "did not elicit any changes"}]}
{"smiles": "O=C(NC(=O)c1ccccc1)Nc1cc([N+](=O)[O-])cc(Cl)c1O", "note": "[PIT-1i-1, reference compound]", "values": [{"measurement": "plasma membrane translocation of Akt PH domain", "setting": "Akt PH domain [1]", "result": "inactive"}, {"measurement": "IC50", "setting": "U87MG cells", "result": "> 200", "unit": "µM"}, {"measurement": "lamellipodia formation and membrane translocation of VAV/WAVE proteins", "setting": "[5]", "result": "inactive"}, {"measurement": "viability of multiple cancer cell lines", "setting": "[3]", "result": "did not induce loss of viability"}, {"measurement": "IC50", "setting": "Akt PH domain [4]", "result": "> 200", "unit": "µM"}, {"measurement": "activity of PIT-1 analogs in vitro", "setting": "Akt PH domain [4]", "result": "inactive analogs"}]}
{"smiles": "COc1c(Cl)cc([N+](=O)[O-])cc1NC(=S)NC(=O)c1ccccc1", "note": "[PIT-1i-2]", "values": [{"measurement": "plasma membrane translocation of Akt PH domain", "setting": "Akt PH domain [1]", "result": "inactive"}, {"measurement": "IC50", "setting": "U87MG cells", "result": "> 200", "unit": "µM"}, {"measurement": "lamellipodia formation and membrane translocation of VAV/WAVE proteins", "setting": "[5]", "result": "inactive"}, {"measurement": "viability of multiple cancer cell lines", "setting": "[3]", "result": "did not induce loss of viability"}, {"measurement": "IC50", "setting": "Akt PH domain [4]", "result": "> 200", "unit": "µM"}, {"measurement": "activity of PIT-1 analogs in vitro", "setting": "Akt PH domain [4]", "result": "inactive analogs"}]}
